A word on the Ki: it is the dissociation constant of the complex between target and ligand, obtained from inhibition or displacement.

In the assay the target is T1, recombinant human LTA4 hydrolase (rhLTA4H) (Homo sapiens, UniProt P09960).
T1 construct: made in house; host or cells: Spodoptera frugiperda (Sf-9) cells, baculovirus (pFastBac1)
T1 sequence (P09960 1-611): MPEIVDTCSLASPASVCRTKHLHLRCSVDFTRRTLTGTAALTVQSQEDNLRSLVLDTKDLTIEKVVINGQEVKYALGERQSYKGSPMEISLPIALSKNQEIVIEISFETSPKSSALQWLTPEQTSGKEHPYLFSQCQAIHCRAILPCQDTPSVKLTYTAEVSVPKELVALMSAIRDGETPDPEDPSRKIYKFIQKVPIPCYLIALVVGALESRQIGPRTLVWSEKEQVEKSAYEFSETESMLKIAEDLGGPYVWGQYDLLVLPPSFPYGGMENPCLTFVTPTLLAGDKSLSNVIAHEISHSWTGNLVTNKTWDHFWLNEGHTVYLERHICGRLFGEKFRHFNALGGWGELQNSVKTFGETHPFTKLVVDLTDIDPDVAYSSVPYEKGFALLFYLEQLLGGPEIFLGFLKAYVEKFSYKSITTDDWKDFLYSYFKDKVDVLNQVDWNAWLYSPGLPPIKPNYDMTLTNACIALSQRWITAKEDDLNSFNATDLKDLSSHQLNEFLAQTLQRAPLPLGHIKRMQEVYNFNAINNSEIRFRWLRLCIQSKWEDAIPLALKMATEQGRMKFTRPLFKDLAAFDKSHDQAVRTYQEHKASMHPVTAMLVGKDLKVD
The assay can be described thus: Recombinant Human LTA4 Hydrolase Assay for LTA4 Hydrolase Inhibitor Activity. Format: biochemical. The note with it: average of results obtained; LTB4 quantified by enzyme-linked immunoassay. The method, boiled down: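 Baculovirus/Sf-9-expressed human LTA4 hydrolase (36 ng) preincubated with compound 10 min at rt in 0.1 M potassium phosphate pH 7.4, 5 mg/mL fatty-acid-free BSA. Reaction started with 9 ng LTA4 free acid, run 10 min at rt; LTB4 measured by enzyme immunoassay, IC50 from 4-parameter fit.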

Counter-ions that a name gives are not always drawn.

On to `NC(=O)N1C[C@H]2C[C@@H]1CN2CCc1ccc(Oc2nc3ccccc3s2)cc1` [Example 280, (R,R)-5-{2-[4-(Benzothiazol-2-yloxy)-phenyl]-ethyl}-2,5-diaza-bicyclo[2.2.1]heptane-2-carboxylic acid amide], for which the Ki was determined as 11 nM.
Take `CS(=O)(=O)N1CC2CCC(C1)N2CCOc1ccc(Oc2nc3ccc(Cl)cc3s2)cc1` [Example 169, meso-6-Chloro-2-{4-[2-(3-methanesulfonyl-3,8-diaza-bicyclo[3.2.1]oct-8-yl)-ethoxy]-phenoxy}-benzothiazole]: the Ki is 693 nM.
With `O=C(c1ccno1)N1CC2CN(Cc3ccc(Oc4nc5ccccc5s4)cc3)CC2C1` (stereo not drawn) [Example 114, {5-[4-(Benzothiazol-2-yloxy)-benzyl]-hexahydro-pyrrolo[3,4-c]pyrrol-2-yl}-isoxazol-5-yl-methanone], the Ki was found to be 33 nM.
Consider `CC(=O)N1[C@@H]2CC[C@H]1C[C@H](NCCOc1ccc(Oc3nc4ccc(Cl)cc4s3)cc1)C2` [Example 268, meso-exo-1-(3-{2-[4-(6-Chloro-benzothiazol-2-yloxy)-phenoxy]-ethylamino}-8-aza-bicyclo[3.2.1]oct-8-yl)-ethanone], for which the Ki was 360 nM.
For the compound `O=C(N1C[C@@H]2C[C@H]1CN2Cc1ccc(Oc2nc3ccccc3s2)cc1)C1(O)CC1` [Example 11, (S,S)-{5-[4-(Benzothiazol-2-yloxy)-benzyl]-2,5-diaza-bicyclo[2.2.1]hept-2-yl}-(1-hydroxy-cyclopropyl)-methanone], the Ki amounted to 13 nM.
On to `CC(=O)N1[C@@H]2CC[C@H]1C[C@H](NCc1ccc(Oc3nc4ccc(C)cc4s3)cc1)C2` [Example 184, meso-exo-1-{3-[4-(6-Methyl-benzothiazol-2-yloxy)-benzylamino]-8-aza-bicyclo[3.2.1]oct-8-yl}-ethanone], for which the Ki was found to be 406 nM.
The value for `CS(=O)(=O)N1CC2CCC(C1)N2CCc1ccc(Oc2nc3cc(F)ccc3s2)cc1` [Example 210, meso-5-Fluoro-2-{4-[2-(3-methanesulfonyl-3,8-diaza-bicyclo[3.2.1]oct-8-yl)-ethyl]-phenoxy}-benzothiazole] was 163 nM; that for `CC(=O)N1C[C@@H]2C[C@H]1CN2CCc1ccc(Oc2nc3c(Cl)cccc3s2)cc1` [Example 253, (S,S)-1-(5-{2-[4-(4-Chloro-benzothiazol-2-yloxy)-phenyl]-ethyl}-2,5-diaza-bicyclo[2.2.1]hept-2-yl)-ethanone] was 2600 nM; that for `O=S(=O)(c1ccco1)N1CC2CN(Cc3ccc(Oc4nc5ccccc5s4)cc3)CC2C1` (stereo not drawn) [Example 121, 2-{4-[5-(Furan-2-sulfonyl)-hexahydro-pyrrolo[3,4-c]pyrrol-2-ylmethyl]-phenoxy}-benzothiazole] was 631 nM.
The value for `O=C(c1cccs1)N1CC2CN(Cc3ccc(Oc4nc5ccccc5s4)cc3)CC2C1` (stereo not drawn) [Example 107, {5-[4-(Benzothiazol-2-yloxy)-benzyl]-hexahydro-pyrrolo[3,4-c]pyrrol-2-yl}-thiophen-2-yl-methanone] was 20 nM; that for `CC(=O)N[C@H]1C[C@H]2CC[C@@H](C1)N2CCc1ccc(Oc2nc3cccc(Cl)c3s2)cc1` [Example 187, meso-endo-N-(8-{2-[4-(7-Chloro-benzothiazol-2-yloxy)-phenyl]-ethyl}-8-aza-bicyclo[3.2.1]oct-3-yl)-acetamide] was 975 nM; that for `CC(=O)N[C@@H]1C[C@H]2CC[C@@H](C1)N2CCOc1ccc(Oc2nc3ccc(F)cc3s2)cc1` [Example 227, meso-exo-N-(8-{2-[4-(6-Fluoro-benzothiazol-2-yloxy)-phenoxy]-ethyl}-8-aza-bicyclo[3.2.1]oct-3-yl)-acetamide] was 8 nM.
The value for `CS(=O)(=O)N1CCC2CN(Cc3ccc(Oc4nc5ccccc5s4)cc3)CC21` (stereo not drawn) [Example 127, 2-[4-(1-Methanesulfonyl-hexahydro-pyrrolo[3,4-b]pyrrol-5-ylmethyl)-phenoxy]-benzothiazole] was 273 nM; that for `CS(=O)(=O)N[C@@H]1C[C@H]2CC[C@@H](C1)N2CCOc1ccc(Oc2nc3ccc(Cl)cc3s2)cc1` [Example 225, meso-exo-N-(8-{2-[4-(6-Chloro-benzothiazol-2-yloxy)-phenoxy]-ethyl}-8-aza-bicyclo[3.2.1]oct-3-yl)-methanesulfonamide] was 116 nM; that for `O=C(c1cnccn1)N1CC2CN(Cc3ccc(Oc4nc5ccccc5s4)cc3)CC2C1` (stereo not drawn) [Example 105, {5-[4-(Benzothiazol-2-yloxy)-benzyl]-hexahydro-pyrrolo[3,4-c]pyrrol-2-yl}-pyrazin-2-yl-methanone] was 69 nM.
Take `CS(=O)(=O)N[C@@H]1C[C@H]2CC[C@@H](C1)N2Cc1ccc(Oc2nc3cccc(Cl)c3s2)cc1` [Example 215, meso-exo-N-{8-[4-(7-Chloro-benzothiazol-2-yloxy)-benzyl]-8-aza-bicyclo[3.2.1]oct-3-yl}-methanesulfonamide]: the Ki is 90 nM.
The value for `CS(=O)(=O)N1C[C@H]2C[C@@H]1CN2Cc1ccc(Oc2nc3ccc(Cl)cc3s2)cc1` [Example 236, (R,R)-6-Chloro-2-[4-(5-methanesulfonyl-2,5-diaza-bicyclo[2.2.1]hept-2-ylmethyl)-phenoxy]-benzothiazole] was 169 nM; that for `NC(=O)N1CC2CN(Cc3ccc(Oc4nc5c(F)cccc5s4)cc3F)CC2C1` (stereo not drawn) [Example 161, 5-[2-Fluoro-4-(4-fluoro-benzothiazol-2-yloxy)-benzyl]-hexahydro-pyrrolo[3,4-c]pyrrole-2-carboxylic acid amide] was 43 nM.
Turning to `CC(C)(C)OC(=O)N1CC(C(=O)N2C[C@@H]3C[C@H]2CN3CCOc2ccc(Oc3nc4ccccc4s3)cc2)C1` [Example 67, (S,S)-3-(5-{2-[4-(Benzothiazol-2-yloxy)-phenoxy]-ethyl}-2,5-diaza-bicyclo[2.2.1]heptane-2-carbonyl)-azetidine-1-carboxylic acid tert-butyl ester], the Ki was determined as 201 nM.
Consider `COCC(=O)N1C[C@@H]2C[C@H]1CN2Cc1ccc(Oc2nc3ccccc3s2)cc1` [Example 41, (S,S)-1-{5-[4-(Benzothiazol-2-yloxy)-benzyl]-2,5-diaza-bicyclo[2.2.1]hept-2-yl}-2-methoxy-ethanone], for which the Ki came out at 15 nM.
The value for `NC(=O)N1CC2CN(Cc3ccc(Oc4nc5ccc(F)cc5s4)cc3)CC2C1` (stereo not drawn) [Example 144, 5-[4-(6-Fluoro-benzothiazol-2-yloxy)-benzyl]-hexahydro-pyrrolo[3,4-c]pyrrole-2-carboxylic acid amide] was 101 nM.
For the compound `CC(C)(C)OC(=O)NCC(=O)N1C[C@@H]2C[C@H]1CN2CCOc1ccc(Oc2nc3ccccc3s2)cc1` [Example 30, (S,S)-[2-(5-{2-[4-(Benzothiazol-2-yloxy)-phenoxy]-ethyl}-2,5-diaza-bicyclo[2.2.1]hept-2-yl)-2-oxo-ethyl]-carbamic acid tert-butyl ester], the Ki is 16 nM.
The value for `NC(=O)N[C@H]1C[C@H]2CC[C@@H](C1)N2Cc1ccc(Cc2nc3ccccc3o2)cc1` [Example 37, meso-endo-[8-(4-Benzooxazol-2-ylmethyl-benzyl)-8-aza-bicyclo[3.2.1]oct-3-yl]-urea] was 44 nM; that for `c1ccc2sc(Oc3ccc(CCN4C[C@@H]5C[C@H]4CN5)cc3)nc2c1` [Example 7B, (S,S)-2-{4-[2-(2,5-Diaza-bicyclo[2.2.1]hept-2-yl)-ethyl]-phenoxy}-benzothiazole hydrochloride] was 10 nM.
To `CS(=O)(=O)N1CC2CCC(C1)N2CCOc1ccc(Oc2nc3cccc(F)c3s2)cc1` [Example 211, meso-7-Fluoro-2-{4-[2-(3-methanesulfonyl-3,8-diaza-bicyclo[3.2.1]oct-8-yl)-ethoxy]-phenoxy}-benzothiazole] belongs 159 nM.
Consider `CS(=O)(=O)N1C[C@@H]2C[C@H]1CN2CCOc1ccc(Oc2nc3cccc(Cl)c3s2)cc1` [Example 182, (S,S)-7-Chloro-2-{4-[2-(5-methanesulfonyl-2,5-diaza-bicyclo[2.2.1]hept-2-yl)-ethoxy]-phenoxy}-benzothiazole], for which the Ki stood at 1590 nM.
Consider `CC(=O)N[C@H]1C[C@H]2CC[C@@H](C1)N2Cc1ccc(Oc2nc3ccccc3s2)cc1` [Example 52, meso-endo-N-{8-[4-(Benzothiazol-2-yloxy)-benzyl]-8-aza-bicyclo[3.2.1]oct-3-yl}-acetamide], for which the Ki is 2 nM.
With `CC(=O)N[C@@H]1C[C@H]2CC[C@@H](C1)N2Cc1ccc(Oc2nc3ccc(F)cc3s2)cc1` [Example 272, meso-exo-N-{8-[4-(6-Fluoro-benzothiazol-2-yloxy)-benzyl]-8-aza-bicyclo[3.2.1]oct-3-yl}-acetamide], the Ki worked out at 6 nM.
In the case of `CC(=O)N[C@H]1C[C@H]2CC[C@@H](C1)N2CCOc1ccc(Oc2nc3ccc(C)cc3s2)cc1` [Example 271], the Ki amounted to 79 nM.
The value for `NC(=O)N1CC2CCN(Cc3ccc(Oc4nc5ccccc5s4)cc3)CC2C1` (single isomer, unassigned; (+)) [Example 142A, (+)-5-[4-(Benzothiazol-2-yloxy)-benzyl]-octahydro-pyrrolo[3,4-c]pyridine-2-carboxylic acid amide] was 53 nM.

Source of the values: US8344008B2 (Janssen Pharmaceutica NV, priority 2007, dated 2013).
